Reference: US6638949B1, “Prevention of adhesions and excessive scar formation using angiogenesis inhibitors” (priority 1997, dated 2003)

Assays:
Type in all cases: in vivo, mice
linear wounds = assay: Breaking strength (tensile strength) of linear wounds; settings: for inhibition of breaking strength: systemic, FIG. 3, n=280 mice, statistically significant
Protocol: FIG. 3 is a graph of breaking strength (tensile strength) of linear wounds after systemic administration of TNP-470 days −20 to 0; days 0 to 4; days 0 to 12; days 5 to 12; and control, measured on days 4, 7 and 12 after wounding. Mice were treated essentially the same as described in Example 1. FIG. 3 (n=280 mice)graphs breaking strength of linear wounds after systemic administration of TNP-470. Breaking strength was inhibited 36% on post wound day 7 and 43% on post wound day 12. This was statistically significant. The wounds were inhibited if TNP-470 was given on post wound days 0, 2, 4 or post wound days 0, 2, 4, 6, 8, and 10.

full thickness wounds = assay: Wound closure / contraction of full thickness wounds
Source text: FIG. 2 is a graph of percent wounds open over time (days after wounding) for mice treated with TNP-470 for different dosage regimes: pretreatment days −60 to day 0; treated with TNP-470 days 5 to 18; treated with TNP-470 days 0 to 18; and treated with TNP-470 days 0, 2 and 4. Full thickness mouse wounds were made in adult mice, the majority of whom were six to eight weeks old and some of whom were fourteen to sixteen weeks old. Mice were pretreated for sixty days with TNP-470, then wounds were made, and healing monitored. Mice were treated with 30 mg/kg TNP-470 administered subcutaneously every other day. Mice were treated essentially the same as described in Example 1. Histological analysis of the wounds in the control and treated mice compared contraction of full thickness wounds in mice treated with systemic TNP-470 (AGM 1470), every other day after the wound is made, with untreated mice. Treatment with TNP-470 every other day after the wound is made (at a dose identical to that which results in maximal tumor inhibition) causes a 5-day delay in the complete contraction of the wound.

[1] = test system: full thickness mouse wounds; assay: Histology of full thickness mouse wounds (hematoxylin and eosin) after TNP-470 treatment
Protocol: Full thickness mouse wounds were made in adult mice, the majority of whom were six to eight weeks old and some of whom were fourteen to sixteen weeks old. Mice were pretreated for sixty days with TNP-470, then wounds were made, and healing monitored. Mice were treated with 30 mg/kg TNP-470 administered subcutaneously every other day. Histological micrographs of open mouse wounds harvested at 7, 12, and 17 days post excision were made. The biopsies were fixed, embedded, sectioned and stained with hematoxylin and eosin.

[2] = test system: basic fibroblast growth factor (bFGF); assay: Endogenous basic fibroblast growth factor (bFGF) in the wound; settings: day 10 after wound; average; p≦0.05
Protocol: FIG. 1 is a graph of endogenous basic fibroblast growth factor (bFGF)(pg/cm2) over time (days after wounding) of mice treated with TNP-470 (solid circles) and controls that were not treated (open circles). Full thickness mouse wounds were made in adult mice, the majority of whom were six to eight weeks old and some of whom were fourteen to sixteen weeks old. Mice were pretreated for sixty days with TNP-470, then wounds were made, and healing monitored. Mice were treated with 30 mg/kg TNP-470 administered subcutaneously every other day. Mice were treated essentially the same as described in Example 1.

[3] = given on post wound days 0, 2, 4, or post wound days 0, 2, 4, 6, 8, and 10
[4] = 17 days post excision, vs untreated

CO[C@@H]1[C@H](OC(=O)NC(=O)CCl)CC[C@]2(CO2)[C@H]1[C@@]1(C)O[C@@H]1CC=C(C)C [TNP-470, 0-chloroacetylcarbamoyl-Fumagillol] was tested, and the “breaking strength of wounds” value (linear wounds; [3]) was “inhibited”, the “inhibition of breaking strength” value (linear wounds; post wound day 7) was 36% and the “inhibition of breaking strength” value (linear wounds; post wound day 12) was 43%. For the same compound, the “wound healing slowed, time to full contraction” value (full thickness wounds; FIG. 2, n=440 mice, statistically significant) was 5 days, the wound healing (full thickness wounds; [3]) was “remained inhibited” and the “delay in the complete contraction of the wound” value (full thickness wounds; systemic, every other day after the wound is made, dose of maximal tumor inhibition) was 5 days. The “blood vessels in healing wound granulation tissue” value ([1]; 7 days post excision, 30 mg/kg s.c. every other day, vs untreated) was “relatively lower density of blood vessels”, the “blood vessels in granulation tissue under re-epithelialized surface” value ([1]; 12 days post excision, wound not completely closed, vs untreated) was “fewer vessels with smaller diameters” and the “blood vessels in mature granulation tissue of healed wound” value [1, 4] was “reduction in the number of vessels”. The “density of mesenchymal cells in granulation tissue” value [1, 4] was “continued higher density of mesenchymal cells”, the “scar formation (histologic findings)” value ([1]; overall, 7, 12 and 17 days) was “severely retarded scar formation” and the “reduction of bFGF concentration in wound” value [2] was 37%.
